Marks after values point to notes of the source that are not given here.
Tests used:
LNCaP cells = assay: Transcriptional profiling by DNA microarray, LNCaP cells; type: cell-based, human
Procedure: Expression profiling: Expression profiling of RNA samples was performed essentially as described (Lockhart et al., (1996) Nat. Biotechnol. 14:1675-80) using the Affymetrix human U95Av2 array. Briefly, RNA was isolated from 100 mm cell culture dishes, DNased, and 15 μg used as a template for double stranded cDNA synthesis according to standard protocols (Invitrogen). Reverse transcription was primed using a T7-modified oligo-dT primer (5-[…]-d(T)24-3′) (SEQ ID NO: 1). In vitro transcription was then performed on each double stranded cDNA synthesis, according to the manufacturer's (Enzo Diagnostics) instructions. The resultant cRNA products were purified using RNeasy columns (Qiagen), pooled, and quantitated spectrophotometrically. For each sample, 20 μg of in vitro transcribed cRNA was fragmented by heating the sample to 94° C. in the presence of 40 mM Tris-acetate, pH 8.1, 100 mM potassium acetate, and 30 mM magnesium acetate. […]
(§1) Data Analysis: Affymetrix CEL files from GeneChip 4.0 (Affymetrix) were imported into Resolver 2.0 under an empirically derived Affymetrix error model (Rosetta Inpharmatics). […] Accordingly, the statistical significance (P-value) of a given expression data point takes into account the underlying error associated with the Affymetrix transcript abundance measurements as determined by this platform-specific error model. […]

HepG2 cells = assay: Transcriptional profiling by DNA microarray, HepG2 cells; type: cell-based, human; details: endogenous levels of PPARα
Text: Threshold cutoffs were set at fold change >1.4; p<0.01; and statistically significant in at least 2 experiments. The genes fatty acid CoA ligase 2 (FACL2), palmitoyl acyl-CoA oxidase 1 (ACOX1), and carnitine palmitoyl acyl-CoA transferase (CPT1A) are included for comparison based on published reports that they are PPARα responsive genes in HepG2 cells over expressing PPARα (Hsu et al., (2001) J. Biol. Chem. 276:27950-8; Lawrence et al., (2001) J. Biol. Chem. 276:31521-7).
Expression profiling: Expression profiling of RNA samples was performed essentially as described (Lockhart et al., (1996) Nat. Biotechnol. 14:1675-80) using the Affymetrix human U95Av2 array. Briefly, RNA was isolated from 100 mm cell culture dishes, DNased, and 15 μg used as a template for double stranded cDNA synthesis according to standard protocols (Invitrogen). […] The resultant cRNA products were purified using RNeasy columns (Qiagen), pooled, and quantitated spectrophotometrically. […]
as §1

[1] = Serum triglyceride levels in fat-fed hamsters; type: in vivo, hamster
Procedure: Blood was sampled at 8, 16 and 48 hours following a single drug treatment for total triglyceride analysis. The mean levels (+/−SEM) for 3 animals per group are shown. The “*” indicates a statistically significant difference with respect to control (p<0.01) by Student's t-test. Animal studies: All procedures performed in this study were approved by the Animal Care and Use committee, and conform to the guide for the Care and Use of Laboratory Animals Act. Male Syrian Golden hamsters (Charles River, Wilmington Mass.) weighing 120-140 g, were used in the study. Animals were kept on a 12-hour light/dark cycle and allowed free access to normal chow and water. The animals were divided into groups according to weight, and fed either an high fat diet (0.5% cholesterol, 5% coconut oil) (N=3) or normal chow diet (N=3). […] At intervals of 0, 8, 16 and 48 hr animals were anesthetized with CO2. Blood was collected by cardiac puncture into EDTA containing tubes; plasma was isolated for immediate analysis of triglycerides by the Dade Clinical Analyser®. Animals were then euthanized with CO2. The liver and kidneys were collected, flash frozen in liquid nitrogen and stored at −80° C. for future gene expression analysis.

SMILES: CCCCCCCN(CCc1ccc(SC(C)(C)C(=O)O)cc1)C(=O)Nc1ccc(F)cc1F [GW9578, ureido-thioisobutyric acid]
- Changes in gene expression in LNCaP cells (LNCaP cells): only minor changes
- Response of PPARα responsive genes (FACL2, CPT1, ACOX1) in HepG2 cells (HepG2 cells): No response
- Change of triglyceride levels compared with the control group ([1]; single dose, 8, 16 and 48 hours): significantly decreased
- Serum triglyceride levels, 48 h ([1]; single dose, mean +/- SEM, 3 animals, control 208.67): 104.67 + 12.02*
- Serum triglyceride levels, 8 h ([1]; single dose, mean +/- SEM, 3 animals, control 261.33): 106.00 + 46.22*
- Serum triglyceride levels, 16 h ([1]; single dose, mean +/- SEM, 3 animals, control 308.00): 142.33 + 51.31*

Reference: US20040106135A1, “Assay for PPAR ligand dependent gene modulation” (priority 2002, published 2004)
